Test results published in US8889705B2, “Noscapine analogs and their use in treating cancers” (Emory University, priority 2007, dated 2014).
“Also recorded” adds a separate entry of the source.

What was measured:
tubulin = test system: T1, tubulin; assay: Tubulin polymerization assay (light scattering at 550 nm); type: biochemical, mammalian; conditions: 25 μM or 100 μM
T1 construct: other: 2 μM tubulin, 45 min at 37° C., double reciprocal plot; rate and extent of tubulin polymerization; other: 25 μM or 100 μM
Procedure: Mammalian brain tubulin (1.0 mg/ml) was mixed with different concentrations of 9-nitro-nos (25 or 100 μM) at 0° C. in an assembly buffer (100 mM PIPES at pH 6.8, 3 mM MgSO4, 1 mM EGTA, 1 mM GTP, and 1M sodium glutamate). Polymerization was initiated by raising the temperature to 37° C. in a water bath. The rate and extent of the polymerization reaction were monitored by light scattering at 550 nm, using a 0.3-cm path length cuvette in a JASCO FP-6500 spectrofluorometer (JASCO, Tokyo, Japan) for 30 minutes.

CEM cells = assay: Cell cycle analysis (propidium iodide, flow cytometry); type: cell-based, human; conditions: 25 μM
Procedure: (§1) The flow cytometric evaluation of the cell cycle status was performed as described previously (Zhou et al., 2003). Briefly, 2×10^6 cells were centrifuged, washed twice with ice-cold PBS, and fixed in 70% ethanol. Tubes containing the cell pellets were stored at 4° C. for at least 24 hours. Cells were then centrifuged at 1000×g for 10 min and the supernatant was discarded. The pellets were washed twice with 5 ml of PBS and then stained with 0.5 ml of propidium iodide (0.1% in 0.6% Triton-X in PBS) and 0.5 ml of RNase A (2 mg/ml) for 45 minutes in dark. Samples were then analyzed on a FACSCalibur flow cytometer (Beckman Coulter Inc., Fullerton, Calif.).

CEM/VM-1-5 cells = assay: as above; type: cell-based, human; conditions: CEM/VM-1-5, 25 μM
Procedure: as §1

[1] = test system: normal human fibroblast cells; assay: as above; type: cell-based; conditions: 100 μM
Procedure: as §1

1A9/PTX22 cells = assay: TUNEL assay for apoptosis (flow cytometry); type: cell-based, human; conditions: 1A9/PTX22, 50 μM, 72 hours
Procedure: DNA strand breaks were identified by using the TUNEL assay as described. In brief, 1A9/PTX22 cells were incubated with 50 μM 9-nitro-nos for 72 hours. Cells were pelleted and washed with ice-cold PBS twice. Cells were then fixed in 1% paraformaldehyde, and apoptosis was detected using the APO-BrdU TUNEL Assay Kit from Molecular Probes (Eugene, Oreg.) according to the manufacturer's instructions. This assay was run on a flow cytometer equipped with a 488 nm argon laser as the light source. Propidium iodide (total cellular DNA) and Alexa-Fluor 488 (apoptotic cells) were the two dyes used. PI fluoresces at about 623 nm and Alexa-Fluor 488 at about 520 nm when excited at 488 nm. […] The gating display was the standard dual parameter DNA doublet discrimination display with the DNA area signal on the Y-axis and the DNA width signal on the X-axis. From this display, a gate was generated around the non-clumped cells and the second gated dual parameter display was generated with the DNA (linear red fluorescence) on the X-axis and the Alexa-Fluor 488 (log green fluorescence) on the Y-axis. Apoptotic cells were subsequently counted as those expressing high Alexa-Fluor 488 fluorescence. Confocal micrographs were also obtained for the TUNEL-stained cells using a 63× objective.

[2] = test system: caspase-3 activity in CEM, CEM/VLB100, CEM/VM-1-5, 1A9 and 1A9/PTX22 cells; assay: Determination of caspase-3 activity (Z-DEVD-aminoluciferin); type: cell-based, human; conditions: 72 hours; 25 μM (CEM lines) or 50 μM (1A9 lines)
Procedure: Determination of caspase-3 activity: 10^6 cells were incubated with 25 μM 9-nitro-nos (CEM, CEMNLB100 and CEM/VM-1-5) or 50 μM 9-nitro-nos (1A9 and 1A9/PTX22) for 0, 24, 48 and 72 hours. Caspase-3 activity was then measured by the cleavage of the small synthetic substrate Z-DEVD-aminoluciferin (CaspaseGlo™ 3/7 Assay System Kit, Promega, Madison, Wis.) that becomes luminogenic upon cleavage. The luminescent signal, which is directly proportional to the amount of caspase-3 activity, was measured in a luminescence plate reader.

[3] = test system: CEM, CEM/VLB100, CEM/VM-1-5, 1A9 and 1A9/PTX22 cells; assay: Immunofluorescence microscopy (microtubule and nuclear morphology); type: cell-based, human; conditions: 72 hours
Procedure: Cells adhered to poly-L-lysine coated coverslips were treated with 9-nitro-nos for 72 hours. After treatment, cells were fixed with cold (−20° C.) methanol for 5 min and then washed with phosphate-buffered saline (PBS) for 5 min. Non-specific sites were blocked by incubating with 100 μl of 2% BSA in PBS at 37° C. for 15 min. A mouse monoclonal antibody against α-tubulin (DM1A, Sigma) was diluted 1:500 in 2% BSA/PBS (100 μl) and incubated with the coverslips for 2 hours at 37° C. Cells were then washed with 2% BSA/PBS for 10 min at room temperature before incubating with a 1:200 dilution of a fluorescein-isothiocyanate (FITC)-labeled goat anti-mouse IgG antibody (Jackson ImmunoResearch, Inc., West Grove, Pa.) at 37° C. for 1 hour. Coverslips were then rinsed with 2% BSA/PBS for 10 min and incubated with propidium iodide (0.5 μg/ml) for 15 min at room temperature before they were mounted with Aquamount (Lerner Laboratories, Pittsburgh, Pa.) containing 0.01% 1,4-diazobicyclo(2,2,2)octane (DABCO, Sigma). Cells were then examined using confocal microscopy for microtubule morphology, and nuclear morphology to visualize DNA fragmentation (at least 100 cells were examined per condition).

Compound: COc1ccc2c(c1OC)C(=O)O[C@@H]2[C@H]1c2c(c([N+](=O)[O-])c3c(c2OC)OCO3)CCN1C [9-nitro-nos, (S)-6,7-dimethoxy-3-((R)-4-methoxy-6-methyl-9-nitro-5,6,7,8-tetrahydro-[1,3]dioxolo[4,5-g]isoquinolin-5-yl)isobenzofuran-1(3H)-one]
- rate and extent of tubulin polymerization (tubulin): did not inhibit the rate or extent of tubulin polymerization
- G0/G1 (CEM cells; 0 h): 45.5%
- G2/M (CEM cells; 0 h): 20.9%
- S (CEM cells; 0 h): 25.0%
- Sub-G1 (CEM cells; 0 h): 0.25%
- G0/G1 (CEM cells; 24 h): 24.8%
- G2/M (CEM cells; 24 h): 34.2%
- S (CEM cells; 24 h): 10.0%
- Sub-G1 (CEM cells; 24 h): 6.5%
- G0/G1 (CEM cells; 48 h): 19.7%
- G2/M (CEM cells; 48 h): 40.0%
- S (CEM cells; 48 h): 8.1%
- Sub-G1 (CEM cells; 48 h): 23.8%
- G0/G1 (CEM cells; 72 h): 13.9%
- G2/M (CEM cells; 72 h): 16.9%
- S (CEM cells; 72 h): 8.9%
- Sub-G1 (CEM cells; 72 h): 44.3%
- G0/G1 (CEM/VM-1-5 cells; 0 h): 36.0%
- G2/M (CEM/VM-1-5 cells; 0 h): 30.7%
- S (CEM/VM-1-5 cells; 0 h): 19.4%
- Sub-G1 (CEM/VM-1-5 cells; 0 h): 3.4%
- G0/G1 (CEM/VM-1-5 cells; 24 h): 25.4%
- G2/M (CEM/VM-1-5 cells; 24 h): 41.0%
- S (CEM/VM-1-5 cells; 24 h): 13.0%
- Sub-G1 (CEM/VM-1-5 cells; 24 h): 18.8%
- G0/G1 (CEM/VM-1-5 cells; 48 h): 13.7%
- G2/M (CEM/VM-1-5 cells; 48 h): 15.0%
- S (CEM/VM-1-5 cells; 48 h): 11.0%
- Sub-G1 (CEM/VM-1-5 cells; 48 h): 58.0%
- G0/G1 (CEM/VM-1-5 cells; 72 h): 10.5%
- G2/M (CEM/VM-1-5 cells; 72 h): 12.2%
- S (CEM/VM-1-5 cells; 72 h): 8.7%
- Sub-G1 (CEM/VM-1-5 cells; 72 h): 63.0%
- cell cycle profile of normal human fibroblast cells [1]: did not observe any perturbations in the cell cycle profile; also recorded: did not alter the cell cycle progression profile
- TUNEL-positive cells (1A9/PTX22 cells): 55.9%
- activation of caspase-3 [2]: 10-20 fold
- cellular and nuclear morphology (apoptosis) [3]: extensive terminal apoptotic figures with fragmented DNA pieces and perturbed microtubule arrays
